Laboratory results: patent US6288077A, “2,3-methano-amino acid compounds” (Adir et Compagnie, priority 1999, dated 2001)
Structures can show the parent of a compound that is named as a salt.

What was measured:
dog plasma [1] = assay: Anti-coagulant activity after administration per os to the dog, activated cephalin time (ACT); type: in vivo; settings: oral
Method: (§1) Anti-coagulant Activity After Administration Per os to the Dog
(§2) Male or female dogs weighing 11-28 kg are treated by the oral route with the products of the invention (5 or 10 mg/kg). The coagulation times (TT, ACT) are determined in dog plasma samples 10 min. before and 30 min., 1 hour, 2 hours, 4 hours and 6 hours after administration of the products. The measurements of the coagulation times are carried out as described in Example 81.
(§3) Under the conditions of our experiments, the TT is of the order of 19 seconds and the ACT of the order of 18 seconds.
(§4) The Table 4 summarizes the results obtained.

human thrombin = biological target: T1, human thrombin (Homo sapiens, UniProt P00734); assay: Inhibition of human thrombin (fibrin formation from purified human fibrinogen); type: biochemical; settings: human thrombin 0.7 nM, human fibrinogen 4 mM, pH 7.4, 20° C., 10 min preincubation
T1 construct: purchased Sigma
Method: Inhibition of Thrombin and of Fibrinolysis Serine Proteases […] The fibrin formed by the thrombin or by the paranitroanilide released by the action of the serine protease is measured spectrophotometrically at 405 nm after from 15 to 30 minutes' reaction at 20° C.

dog plasma [2] = assay: Anti-coagulant activity after administration per os to the dog, thrombin time (TT); type: in vivo; settings: oral
Method: as §1, §2, §3, §4

human plasma [3] = assay: Activated cephalin time (ACT) in human plasma, anti-coagulant activity; type: biochemical; settings: human plasma deficient in platelets, 2 min incubation at 37° C., PTT Automate Cephalin
Method: (§5) Anti-coagulant Activity, Measurement of Thrombin Time and Activated […] Man In order to evaluate the anti-coagulant activity of the compounds of the invention, the thrombin time (TT) and the activated cephalin time (ACT) were determined in human plasma samples. An ST4 coagulometer (Diagnostica Stago, France) was used. A lyophilised plasma, deficient in platelets (Stago), is taken up in distilled water. The TT is obtained using the reagent Prest Thrombin and the ACT using the reagent PTT Automate […]. […] The activity of an antagonist is evaluated by its capacity to prolong the TT and the ACT relative to the control. The effect of the inhibitors is expressed by the concentration in μM that doubles the coagulation time (Ctt2).

human plasma [4] = assay: Thrombin time (TT) in human plasma, anti-coagulant activity; type: biochemical; settings: human plasma deficient in platelets, 2 min incubation at 37° C., Prest Thrombin
Method: as §5

Structure (SMILES) | ACT increase (maximal; number of times by which the initial time is increased) (dog plasma [1]; 5 mg/kg) | IC50 (human thrombin) | TT increase (maximal; number of times by which the initial time is increased) (dog plasma [2]; 5 mg/kg) | ACT Ctt2 (concentration that doubles the coagulation time) (human plasma [3]) | TT Ctt2 (concentration that doubles the coagulation time) (human plasma [4]) | ACT increase (maximal; number of times by which the initial time is increased) (dog plasma [1]; 10 mg/kg) | TT increase (maximal; number of times by which the initial time is increased) (dog plasma [2]; 10 mg/kg)
Cl.Cl.N=C(N)c1ccc(CNC(=O)[C@]23C[C@H]2CCN3C(=O)[C@H](N)CC2CCCCC2)cc1 [Example 2, 1-[(2R)-3-Cyclohexylalanyl]-N-(4-amidinobenzyl)-(2S,3R)-2,3-methano-prolinamide dihydrochloride] | 1.4 times | 7.9 nM | 3.8 times | 0.52 µM | 0.07 µM | – | –
Cl.N=C(N)c1ccc(CNC(=O)[C@]23C[C@H]2CCN3C(=O)[C@@H](CC2CCCCC2)NCC(=O)O)cc1 [Example 3, 1-[N-Carboxymethyl-(2R)-3-cyclohexylalanyl]-N-(4-amidinobenzyl)-(2S,3R)-2,3-methano-prolinamide hydrochloride] | 2.1 times | 5.3 nM | 8.4 times | 0.56 µM | 0.06 µM | – | –
Cl.N=C(N)c1ccc(CNC(=O)[C@]23C[C@H]2CCN3C(=O)[C@@H](Cc2ccccc2)NS(=O)(=O)Cc2ccccc2)cc1 [Example 9, 1-[N-Benzylsulphonyl-(2R)-3-phenylalanyl]-N-(4-amidinobenzyl)-(2S,3R)-2,3-methano-prolinamide hydrochloride] | – | 6 nM | – | 0.86 µM | 0.20 µM | – | –
Cl.Cl.N=C(N)c1ccc(CNC(=O)[C@]23C[C@H]2CCN3C(=O)[C@H](N)C(c2ccccc2)c2ccccc2)cc1 [Example 11, 1-[(2R)-3,3-Diphenylalanyl]-N-(4-amidinobenzyl)-(2S,3R)-2,3-methano-prolinamide dihydrochloride] | 2.3 times | 4 nM | 5.6 times | 0.59 µM | 0.06 µM | – | –
Cl.Cl.N=C(N)c1ccc(CNC(=O)[C@]23C[C@H]2CCN3C(=O)[C@H](N)C(C2CCCCC2)C2CCCCC2)cc1 [Example 13, 1-[(2R)-3,3-Dicyclohexylalanyl]-N-(4-amidinobenzyl)-(2S,3R)-2,3-methano-prolinamide dihydrochloride] | – | 1.2 nM | – | 2.30 µM | 0.18 µM | – | –
Cl.N=C(N)c1ccc(CNC(=O)[C@]23C[C@H]2CCN3C(=O)[C@H](NCC(=O)O)C(C2CCCCC2)C2CCCCC2)cc1 [Example 14, 1-[N-Carboxymethyl-(2R)-3,3-dicyclohexylalanyl]-N-(4-amidinobenzyl)-(2S,3R)-2,3-methano-prolinamide hydrochloride] | – | 1 nM | – | 2.20 µM | 0.19 µM | – | –
N=C(N)c1ccc(CNC(=O)[C@]23C[C@H]2CCN3C(=O)[C@H](NS(=O)(=O)Cc2ccccc2)C2CCCCC2)cc1 [Example 16, 1-[N-Benzylsulphonyl-(2R)-cyclohexylglycyl]-N-(4-amidinobenzyl)-(2S,3R)-2,3-methano-prolinamide hydrochloride] | – | 1 nM | – | 0.42 µM | 0.09 µM | – | –
N=C(N)c1ccc(CNC(=O)[C@]23C[C@H]2CCN3C(=O)[C@H](NCC(=O)O)C2CCCCC2)cc1 [Example 17, 1-[N-Carboxymethyl-(2R)-cyclohexylglycyl]-N-(4-amidinobenzyl)-(2S,3R)-2,3-methano-prolinamide hydrochloride] | 3.7 times | 28 nM | 16.0 times | 0.86 µM | 0.11 µM | – | –
Cl.N=C(N)c1ccc(CNC(=O)[C@]23C[C@H]2CCCN3C(=O)[C@@H](CC2CCCCC2)NCC(=O)O)cc1 [Example 24, 1-[N-Carboxymethyl-(2R)-3-cyclohexylalanyl]-N-(4-amidinobenzyl)-(2S,3R)-2,3-methano-homoprolinamide hydrochloride] | 1.2 times | 2.3 nM | 6.7 times | 0.58 µM | 0.03 µM | – | –
CCOC(=O)CN[C@H](CC1CCCCC1)C(=O)N1CCC[C@@H]2C[C@@]21C(=O)NCc1ccc(C(=N)N)cc1.Cl.Cl [Example 25, 1-[N-Ethoxycarbonylmethyl-(2R)-3-cyclohexylalanyl]-N-(4-amidinobenzyl)-(2S,3R)-2,3-methano-homoprolinamide dihydrochloride] | – | 2 nM | – | 0.45 µM | 0.08 µM | – | –
Cc1nc(N)ccc1CNC(=O)[C@]12C[C@H]1CCCN2C(=O)[C@H](N)CC1CCCCC1.Cl.Cl [Example 28, 1-[(2R)-3-Cyclohexylalanyl]-N-[(6-amino-2-methyl-3-pyridyl)methyl]-(2S,3R)-2,3-methano-homoprolinamide dihydrochloride] | – | 26 nM | – | 2.30 µM | 0.31 µM | 1.8 times | 6.2 times
CN[C@H](CC1CCCCC1)C(=O)N1CCC[C@@H]2C[C@@]21C(=O)NCc1ccc(N)nc1C.Cl.Cl [Example 29, 1-[N-Methyl-(2R)-3-cyclohexylalanyl]-N-[(6-amino-2-methyl-3-pyridyl)methyl]-(2S,3R)-2,3-methano-homoprolinamide dihydrochloride] | – | 44 nM | – | 2.80 µM | 0.46 µM | 1.7 times | 6.2 times
CCCCN[C@H](CC1CCCCC1)C(=O)N1CCC[C@@H]2C[C@@]21C(=O)NCc1ccc(N)nc1C.Cl.Cl [Example 31, 1-[N-Butyl-(2R)-3-cyclohexylalanyl]-N-[(6-amino-2-methyl-3-pyridyl)methyl]-(2S,3R)-2,3-methano-homoprolinamide dihydrochloride] | – | 5.1 nM | – | 1.30 µM | 0.17 µM | – | –
Cc1nc(N)ccc1CNC(=O)[C@]12C[C@H]1CCCN2C(=O)[C@@H](CC1CCCCC1)NCC(=O)O.Cl.Cl [Example 32, 1-[N-Carboxymethyl-(2R)-3-cyclohexylalanyl]-N-[(6-amino-2-methyl-3-pyridyl)methyl]-(2S,3R)-2,3-methano-homoprolinamide dihydrochloride] | – | 7.1 nM | – | 1.09 µM | 0.12 µM | – | –
CCOC(=O)CN[C@H](CC1CCCCC1)C(=O)N1CCC[C@@H]2C[C@@]21C(=O)NCc1ccc(N)nc1C.Cl.Cl [Example 33, 1-[N-Ethoxycarbonylmethyl-(2R)-3-cyclohexylalanyl]-N-[(6-amino-2-methyl-3-pyridyl)methyl]-(2S,3R)-2,3-methano-homoprolinamide dihydrochloride] | 1.5 times | 5.1 nM | 7.1 times | 1.10 µM | 0.11 µM | – | –
Cl.Cl.N=C(N)c1ccc(CNC(=O)[C@]23C[C@H]2CCCN3C(=O)[C@H](N)C(c2ccccc2)c2ccccc2)cc1 [Example 61, 1-[(2R)-3,3-Diphenylalanyl]-N-(4-amidinobenzyl)-(2S,3R)-2,3-methano-homoprolinamide dihydrochloride] | 2.0 times | 1 nM | 14.2 times | 0.47 µM | 0.05 µM | – | –
Cc1nc(N)ccc1CNC(=O)[C@]12C[C@H]1CCCN2C(=O)[C@H](N)C(C1CCCCC1)C1CCCCC1 [Example 63, 1-[(2R)-3,3-Dicyclohexylalanyl]-N-[(6-amino-2-methyl-3-pyridyl)methyl]-(2S,3R)-2,3-methano-homoprolinamide dihydrochloride] | – | 8.8 nM | – | – | – | – | –
